Here are results for one compound from article PMC6469979, “A Dopamine-Responsive Signal Transduction Controls Transcription of Salmonella enterica Serovar Typhimurium Virulence Genes” (mBio, 2019).

The target of the assay is EmrR-His6 (EmrR) (Salmonella enterica, UniProt Q7CPY9). The assay can be described thus: EMSA, release of EmrR-His6 from […]-labelled pagC-pagD promoter DNA. As to conditions: dopamine 1, 10, 100 uM; 50 pmol EmrR-His6 in 20 ul; room temperature, 30 min; DNA-binding inhibition. For orientation: A gel shift assay detects complexes by their altered migration in electrophoresis.
Chain of EmrR-His6 (EmrR) (Q7CPY9 entry or part of it): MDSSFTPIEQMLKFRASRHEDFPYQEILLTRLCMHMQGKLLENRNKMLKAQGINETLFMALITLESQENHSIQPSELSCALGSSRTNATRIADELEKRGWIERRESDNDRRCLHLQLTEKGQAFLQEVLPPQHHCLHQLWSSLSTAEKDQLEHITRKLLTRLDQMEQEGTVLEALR

`NCCc1ccc(O)c(O)c1` [dopamine]: the “EMSA, release of EmrR-His6 from 32P-labelled pagC-pagD promoter DNA” value is “dopamine alone was sufficient to reduce the affinity of a pure EmrR protein”.
